We go through seven compounds from PubChem BioAssay (NCI).

Molecules are shown by their SMILES. “And” between values parts separate entries of the source, which are not always exact repeats. Identical values can stand only once.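 All cell lines were grown in 96-well plates and treated with compound for 48 hours. GI50 marks 50% less growth. TGI is the concentration that stops growth completely.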

Some test systems named below: NCI-H23 lung; SK-OV-3 ovarian; COLO 205 colon; CAKI-1 renal; SNB-75 CNS; HS 578T breast; UO-31 renal; HL-60(TB) leukemia; SF-539 CNS; HOP-92 NSCLC.
Holding throughout (experiment): DTP human tumour cell line panel, 48 h

As usually defined, the GI50 is the concentration giving 50% growth inhibition. One may read the TGI as the concentration giving total growth inhibition. Consider `COc1ccc(C2CC(c3cccc(Nc4ccnc5cc(Cl)ccc45)c3)=NN2C=O)cc1` (stereo not given), for which the GI50 with NCI-H23 lung was 0.967 µM; in the experiment with SK-OV-3 ovarian it was 0.795 µM; in the experiment with COLO 205 colon, 0.484 µM; in the experiment with CAKI-1 renal it was 0.394 µM; with SNB-75 CNS, 0.244 µM; in the experiment with HS 578T breast, 0.367 µM. Further, the GI50 in the experiment with UO-31 renal was 0.989 µM; in the experiment on HL-60(TB) leukemia it was 0.257 µM; with SF-539 CNS, 0.785 µM; with HOP-92 NSCLC it was more than 100 µM. Besides, the TGI in the experiment with NCI-H23 lung is more than 81.6 µM; in the experiment with SK-OV-3 ovarian, more than 35.6 µM; with COLO 205 colon, 2.95 µM; with CAKI-1 renal, 29.2 µM; in the experiment on SNB-75 CNS it was 3.01 µM; with HS 578T breast it was 16.9 µM. In addition, the TGI is more than 100 µM in the experiment with UO-31 renal, 0.774 µM with HL-60(TB) leukemia, 8.42 µM in the experiment on SF-539 CNS and more than 100 µM in the experiment on HOP-92 NSCLC.
As to `Nc1nccc(-c2c(-c3ccc(F)cc3)ncn2C2CCNCC2)n1`, the GI50 with NCI-H23 lung was 9.71 µM and 4.41 µM; with SK-OV-3 ovarian it was 3.34 µM and 5.45 µM; in the experiment on COLO 205 colon it was 0.623 µM and 1.01 µM; with CAKI-1 renal, > 25 µM and 7.29 µM; with SNB-75 CNS, 2.91 µM and 1.17 µM; in the experiment on HS 578T breast, > 18.3 µM and 5.54 µM. Besides, the GI50 was 10.9 µM and 3.04 µM in the experiment with UO-31 renal; > 25 µM and 6.47 µM in the experiment on HL-60(TB) leukemia; 23.5 µM and 8.37 µM in the experiment on SF-539 CNS; 3.07 µM in the experiment on HOP-92 NSCLC. For the same compound, the TGI with NCI-H23 lung is > 25 µM and 18.8 µM; with SK-OV-3 ovarian it was more than 25 µM; in the experiment on COLO 205 colon, > 7.09 µM and 11.1 µM; in the experiment with CAKI-1 renal, more than 25 µM; in the experiment with SNB-75 CNS, > 23.4 µM and 12.7 µM; with HS 578T breast, more than 25 µM. In addition, the TGI in the experiment with UO-31 renal is > 25 µM and 17.4 µM; with HL-60(TB) leukemia, more than 25 µM; with SF-539 CNS it was more than 25 µM; with HOP-92 NSCLC, more than 25 µM.
As to `Cc1cccc(N(C)C(=O)[C@@H]2[C@H](O)CCN2c2nc(C)cc(C(F)(F)F)c2C#N)c1`, the GI50 in the experiment on NCI-H23 lung was 31.2 µM; in the experiment with SK-OV-3 ovarian it was 24.1 µM; with COLO 205 colon, 17.3 µM; in the experiment with CAKI-1 renal it was 29.1 µM; in the experiment with SNB-75 CNS it was 31.4 µM; with HS 578T breast, 25.7 µM. Moreover, the GI50 is 14.8 µM in the experiment on UO-31 renal, 3.56 µM in the experiment on HL-60(TB) leukemia, 15.9 µM in the experiment with SF-539 CNS and 11 µM in the experiment with HOP-92 NSCLC. Moreover, the TGI is more than 100 µM in the experiment with NCI-H23 lung; 81.1 µM in the experiment on SK-OV-3 ovarian; 34 µM with COLO 205 colon; more than 100 µM in the experiment with CAKI-1 renal; more than 100 µM with SNB-75 CNS; more than 100 µM with HS 578T breast. In addition, the total growth inhibition concentration (TGI) in the experiment with UO-31 renal came out at 29.5 µM; with HL-60(TB) leukemia, 17.4 µM; in the experiment with SF-539 CNS it was 32.2 µM; in the experiment with HOP-92 NSCLC, 53.1 µM.
Take `C=C1CC[C@@H]2[C@](C)(COC(C)=O)[C@H](OC(C)=O)CC[C@@]2(C)[C@@H]1CC(Nc1ccc(S(=O)(=O)NC(C)=O)cc1)C1=CCOC1=O` (stereo not given in full): the GI50 in the experiment with NCI-H23 lung is 5.52 µM; in the experiment with SK-OV-3 ovarian, 9.31 µM; in the experiment with COLO 205 colon, 1.81 µM; with CAKI-1 renal, 3.31 µM; in the experiment on SNB-75 CNS, 3.08 µM; with HS 578T breast, 8.45 µM. The GI50 is 3.71 µM in the experiment on UO-31 renal, 2.45 µM with HL-60(TB) leukemia, 2.39 µM in the experiment with SF-539 CNS and 6.5 µM with HOP-92 NSCLC. Also, the TGI amounted to 17.4 µM in the experiment on NCI-H23 lung; 18.7 µM in the experiment with SK-OV-3 ovarian; 4.82 µM in the experiment on COLO 205 colon; 11.2 µM in the experiment on CAKI-1 renal; 12.7 µM in the experiment on SNB-75 CNS; 38.8 µM in the experiment with HS 578T breast. The TGI in the experiment with UO-31 renal turned out to be 13.2 µM; with HL-60(TB) leukemia it was 12 µM; with SF-539 CNS it was 7.77 µM; in the experiment with HOP-92 NSCLC, 15.8 µM.
`CCSCC1CC(O)(c2ccccc2)CC(c2ccc(F)cc2)O1` (stereo not given): the GI50 is 2.1 µM in the experiment with NCI-H23 lung; 2.62 µM in the experiment with SK-OV-3 ovarian; 1.53 µM in the experiment with COLO 205 colon; 2.42 µM in the experiment with CAKI-1 renal; 1.88 µM in the experiment on SNB-75 CNS; 1.89 µM in the experiment with HS 578T breast. Also, the GI50 is 1.4 µM in the experiment with UO-31 renal, 2.19 µM in the experiment with HL-60(TB) leukemia, 1.94 µM in the experiment on SF-539 CNS and 1.25 µM in the experiment on HOP-92 NSCLC. In addition, the TGI in the experiment on NCI-H23 lung is 5.28 µM; with SK-OV-3 ovarian it was 7.39 µM; in the experiment on COLO 205 colon, 2.87 µM; in the experiment on CAKI-1 renal, 8.16 µM; with SNB-75 CNS, 5.74 µM; with HS 578T breast, 4.36 µM. Besides, the TGI in the experiment with UO-31 renal was 5.1 µM; in the experiment with HL-60(TB) leukemia, 4.56 µM; with SF-539 CNS, 3.84 µM; in the experiment with HOP-92 NSCLC, 2.72 µM.
Regarding `CCN1C/C(=C\c2cc(OC)c(OC)cc2OC)C(=O)/C(=C/c2cc(OC)c(OC)cc2OC)C1`, the GI50 in the experiment on NCI-H23 lung is 3.43 µM; in the experiment with SK-OV-3 ovarian it was 3.69 µM; in the experiment with COLO 205 colon it was 2.31 µM; with CAKI-1 renal, 2.98 µM; in the experiment with SNB-75 CNS, 5.86 µM; in the experiment on HS 578T breast, 3.34 µM. The GI50 was 1.8 µM in the experiment with UO-31 renal, 2.84 µM in the experiment with HL-60(TB) leukemia, 2.61 µM with SF-539 CNS and 2.46 µM in the experiment on HOP-92 NSCLC. Besides, the TGI in the experiment with NCI-H23 lung was 15.4 µM; in the experiment on SK-OV-3 ovarian, more than 100 µM; with COLO 205 colon it was 5.43 µM; in the experiment with CAKI-1 renal it was 6.82 µM; in the experiment on SNB-75 CNS it was 78 µM; with HS 578T breast, 79.5 µM. Further, the TGI in the experiment on UO-31 renal turned out to be 3.9 µM; in the experiment on HL-60(TB) leukemia, 8.26 µM; with SF-539 CNS, 7.33 µM; in the experiment on HOP-92 NSCLC, 17.8 µM.
As to `CCC(C)[C@H]1O[C@]2(CC[C@@H]1C)C[C@@H]1C[C@@H](C/C=C(\C)[C@@H](OC3C[C@H](OC)C(O[C@H]4C[C@H](OC)[C@@H](O)[C@H](C)O4)[C@H](C)O3)[C@@H](C)/C=C/C=C3\CO[C@@H]4[C@H](O)C(C)=C[C@@H](C(=O)O1)[C@]34O)O2` (stereo not given in full), the GI50 is 3.21 µM in the experiment on NCI-H23 lung; 2 µM in the experiment with SK-OV-3 ovarian; 1.63 µM in the experiment with COLO 205 colon; 2.6 µM in the experiment with CAKI-1 renal; 2.69 µM in the experiment on SNB-75 CNS; 3.76 µM in the experiment on HS 578T breast. In addition, the GI50 with UO-31 renal is 1.85 µM; in the experiment on HL-60(TB) leukemia, 2.18 µM; with SF-539 CNS, 1.91 µM; with HOP-92 NSCLC, 1.98 µM. Also, the TGI in the experiment on NCI-H23 lung was determined as 13.7 µM; in the experiment on SK-OV-3 ovarian, 5.04 µM; in the experiment on COLO 205 colon, 3.1 µM; with CAKI-1 renal it was 11.2 µM; in the experiment with SNB-75 CNS, 7.56 µM; in the experiment on HS 578T breast, 20.7 µM. The TGI in the experiment with UO-31 renal amounted to 10.2 µM; in the experiment with HL-60(TB) leukemia, 5.03 µM; in the experiment on SF-539 CNS, 3.96 µM; in the experiment with HOP-92 NSCLC, 8.18 µM.
